Source: patent US10702568B2, “Compositions containing silymarin and sulfoalkyl ether cyclodextrin and methods of using the same” (UNIVERSITY OF KANSAS, priority 2015, dated 2020)
Values after ≈ are worked out from the molar mass of the structure shown.

Legend:
[1] = Pharmacokinetic study in rat; assay type: in vivo; settings: oral, FIG. 21A
Procedure: The Silymarin-CAPTISOL® complex was administered to rat to test its pharmacokinetic properties.
On arrival rats were housed individually in cages at animal care facility in a temperature and humidity controlled room with a 12 h:12 h (light:dark) cycles. The rats were provided with free access to food and water for one week before using for experimental purpose. The 12 rats were equally divided into three groups—Group I: silymarin-CAPTISOL® complex with a CAPTISOL® concentration of 100 mM for oral administration; Group II: silymarin suspension (Control); and Group III: silymarin complex with a CAPTISOL® concentration of 100 mM for intravenous administration. The animals were fasted overnight with free access to water. On the day of experiment, the rat was removed from animal care facility and brought to the procedure lab. The animal was weighed and appropriate dosing volume was determined. For oral administration, rat's head was held in place by gently extending the head back and supporting the lower body. The gavage tube was placed in the mouth and advanced along the lower palate till the esophagus, and the silymarin was administered through the tube. For intravenous administration, the silymarin-CAPTISOL® complex was administered by slow bolus intravenous injection into the tail vein. Approximately 200 μL blood was drawn into heparin coated tubes at pre dose, 0.15, 0.5, 1, 2, 4, 8, 10 and 24 h for oral group II and for intravenous group III. The sampling time points were predose, 0.12, 0.25, 0.5, 1, 2, 4, 8 and 24 h through the jugular vein catheter. Plasma was harvested by centrifuging the blood at 4000 RPM for 5 min and stored frozen at −80±10° C. until analysis.
Stored plasma was thawed just before performing the silymarin components analysis. 200 μL of acetonitrile containing 0.1% of ammonia was added to 50 μL of plasma, and this mixture was vortexed for 5 min and centrifuged at 4° C. for 5 min at 10,000 RPM. After centrifugation, the supernatant was separated and injected into HPLC for analysis of silymarin constituents taxifolin, silydianin, silychristin, silybin A, silybin B, isosilybin A and isosilybin B.
The plasma concentration-time curves of silybin A, silybin B, isosilybin A, and isosilybin B in the Silymarin-CAPTISOL® sample of Group I and the control sample (silymarin suspension) are respectively shown in FIGS. 20A to 20D.

[2] = Log D of silymarin components (octanol/buffer, HPLC); assay type: physicochemical; settings: octanol/universal buffer pH 7.4, 16 h shaking at room temperature; read-out: Log D (7.4 pH)
Procedure: (§1) Silymarin components including taxifolin, silydianin, silychristin, silybin A, silybin B, isosilybin A, and isosilybin B were tested for their solubility in water and also for their Log D value. The silymarin extract was obtained from Indena® (Indena Code: 9065110). The HPLC system consisted of Waters system equipped with performance PLUS inline degasser along dual λ absorbance detector set at 288 nm. The chromatographic separation of silymarin constituents was achieved on a Symmetry Shield RP18 column (150×4.6 mm, 5 μm); which was maintained at ambient room temperature conditions. The binary mobile phase system consisted of reservoir A (methanol: 10 mM ammonium acetate pH 5 [65:35 v/v]) and reservoir B (10 mM ammonium acetate, pH 5) were run as per gradient program (0-1.9 min: 25% A and 75% B; 2.0-14.9 min: 80% A and 20% B and 15-37.9 min: 80% A and 20% B and 38-40 min: 25% A and 75% B). The flow rate was 1 mL/min throughout the analytical run.
To determine the Log D of silymarin components, the silymarin extract (2 mg) was dissolved in 100% DMSO and then used for the experiment. Different buffers between pH ranges of 1.0 to 12 were prepared by using universal buffer stock containing 25 mM hydrochloric acid, 25 mM citric acid, 25 mM phosphoric acid, 30 mM boric acid and 20 mM sodium chloride. About 45 mL of universal buffer was titrated with Sodium hydroxide (5M) to obtain desired pH. A 10 μL of silymarin stock solution was spiked into Eppendorf tube containing 500 μL each of a buffer and presaturated octanol. This mixture was vortexed for 5 minutes and kept for shaking at room temperature. After 16 h, the mixture was centrifuged at 10,000 RPM for 30 minutes. After centrifugation buffer and octanol phases were separated, both phases were diluted with acetonitrile (1:1) and subject to HPLC analysis for quantitation of individual components of silymarin. The Log D values of each compound at a pH was determined by Log D (pH)=Log [Organic (peak area)/Aqueous (peak area)].

[3] = Mutual phase solubility study of Silymarin-CAPTISOL® complex (method A, method B); assay type: physicochemical
Procedure: Two methods, method A and method B, were used to prepare the silymarin-CAPTISOL® complexes and the phase solubility of the various components in the complexes were measured and compared. The silymarin extract was obtained from Indena® (Indena Code: 9065110).
In method A, the Silymarin-CAPTISOL® complex was prepared through a hot extraction method. […] The filtrates were analyzed using HPLC for Taxifolin, Silychristin, Silydianin, Silybin A, Silybin B, Isosilybin A and Isosilybin B after appropriate dilution.
In method B, the Silymarin-CAPTISOL® complex was prepared by combining the CAPTISOL® and silymarin at ambient temperature: 120 mg of the extract was incorporated in 0 10, 20, 40, 60, 80 and 100 mM concentrations of CAPTISOL® solution in water. These samples were shook at room temperature for 3 days. At equilibrium, samples were centrifuged at 10,000 RPM and filtered using Millipore (0.22 μm) syringe filter. The filtrates were analyzed using HPLC for Taxifolin, Silychristin, Silydianin, Silybin A, Silybin B, Isosilybin A and Isosilybin B after appropriate dilution.
The solubility of the Silymarin-CAPTISOL® complexes prepared using method A and method B were measured.

[4] = Solubility of silymarin components in water (Example 10, HPLC); assay type: physicochemical; settings: water; component of Indena silymarin extract, HPLC; read-out: Solubility in water
Procedure: as §1

## O=C1c2c(O)cc(O)cc2O[C@H](c2ccc(O)c(O)c2)[C@H]1O [Taxifolin]
[1]
  AUC of Silymarin-CAPTISOL® complex compared with the control sample: higher AUC
[2]
  logD at 16 h: 1.35
[3]; CAPTISOL® 10 mM, Method A (hot extraction 70-75° C., 60 minutes)
  number of fold increase in solubility: 1.95 fold
[3]; CAPTISOL® 10 mM, Method B (ambient temperature, 3 days)
  number of fold increase in solubility: 1.97 fold
[3]; CAPTISOL® 20 mM, Method A (hot extraction 70-75° C., 60 minutes)
  number of fold increase in solubility: 3.32 fold
[3]; CAPTISOL® 20 mM, Method B (ambient temperature, 3 days)
  number of fold increase in solubility: 3.06 fold
[3]; CAPTISOL® 40 mM, Method A (hot extraction 70-75° C., 60 minutes)
  number of fold increase in solubility: 3.54 fold
[3]; CAPTISOL® 40 mM, Method B (ambient temperature, 3 days)
  number of fold increase in solubility: 3.39 fold
[3]; CAPTISOL® 60 mM, Method A (hot extraction 70-75° C., 60 minutes)
  number of fold increase in solubility: 4.26 fold
[3]; CAPTISOL® 60 mM, Method B (ambient temperature, 3 days)
  number of fold increase in solubility: 3.48 fold
[3]; CAPTISOL® 80 mM, Method A (hot extraction 70-75° C., 60 minutes)
  number of fold increase in solubility: 4.51 fold
[3]; CAPTISOL® 80 mM, Method B (ambient temperature, 3 days)
  number of fold increase in solubility: 3.47 fold
[3]; CAPTISOL® 100 mM, Method A (hot extraction 70-75° C., 60 minutes)
  number of fold increase in solubility: 4.77 fold
[3]; CAPTISOL® 100 mM, Method B (ambient temperature, 3 days)
  number of fold increase in solubility: 3.72 fold
[4]
  solubility: 550 µg/mL (≈ 1810 µM)
